Experimental data reported in paper PMC4035770 (Pharmaceuticals, 2014).
pIC50, pKi: −log10 of the molar value. Where a name gives a salt, the structure may show the parent alone.

Assays:
[1] = biological target: T1, Norepinephrine transporter (NET) (Homo sapiens, UniProt P23975); assay: Pharmacological screen, norepinephrine transporter; assay type: binding; details: NET
T1 construct: MDS Pharma Services Taiwan

[2] = parameters: method as in earlier work; details: plasma samples; cited from earlier work
[3] = Aqueous pH stability profile at 40 °C
[4] = cited from earlier work
Nicotinic acetylcholine = assay: Pharmacological screen, nicotinic acetylcholine receptor binding; details: Nicotinic acetylcholine
Procedure: 2.4. Plasma LLOQ/Precision […]
of 10 ng/mL. […] ACN (200 µL) […]
was added and the solution was vortex mixed. The remaining mixture was centrifuged at 10,000 rpm […]
The final concentration was 1 ng/mL. […]
signal to noise ratio of three.
2.6. Brain LLOQ Accuracy/Precision
Aliquots (5 × 200 µL) were […]
transferred to 1.5 mL microcentrifuge tubes.
ACN (300 µL) was added and […]
the solution was vortex mixed. […] 200 µL
The solution was vortex mixed again and analysed by HPLC. Final concentrations were 12.5, 125 ng/mL.
2.7. Pharmacological Screening of N-Methyl Bupropion and Bupropion […]
nicotinic acetylcholine receptor [5,6] and SERT [7,8]. The specific nicotinic acetylcholine assays are […]
and nicotinic acetylcholine α7 [12].
3. Results Method Validation […]
diluent solutions separately.

[5] = biological target: Muscarinic non -selective, central; assay: Pharmacological screen, muscarinic receptor binding
[6] = Screening incubation in pooled human plasma (PHP); assay type: in vitro ADME; details: incubation 37 °C, one hour, n = 2; <LOD = bupropion, its metabolites or other prodrugs not detected; LOD 0.1 ng/mL
Text: Pooled human plasma solution preparation. Citrated human plasma was pooled together from three separate donors.
Finally, pooled human plasma (PHP) was used to evaluate the prodrug stability/activation in blood since the plasma fraction contains much of the hydrolase activity in blood.

[7] = Microsomal metabolic stability screen, pooled human liver microsomes (HLM); assay type: in vitro ADME; details: 10 µM prodrug, 0.1 mg/mL HLM, NADPH regenerating system, 37 °C, 60 min, n = 2; LOD 0.1 ng/mL
Procedure: Human liver microsome (HLM) stock solution preparation. HLM (0.5 mL) stock was added to PBS solution (9.5 mL). Final concentration; 1 mg/mL. The PBS solution was prepared by addition of one USP PBS tablet (Sigma-Aldrich catalogue number P4417) dissolved in 200 mL deionised water.
(§1) Microsomes, NADPH regenerating solutions A and B were thawed rapidly to 37 °C, then kept on wet ice until ready for use. A stock solution of the prodrug (5 mM) was prepared in ACN. To a 1.7 mL microcentrifuge tube in a 37 °C water bath was added the phosphate buffered saline solution (349 µL), the NADPH regenerating solution A (50 µL), the NADPH regenerating solution B (50 µL), and the prodrug solution (1 µL). After incubation for 5 min, microsome solution (50 µL) was added and the metabolism was initiated. The tube was vortex mixed. The final concentrations in this solution was 10 µM prodrug, 0.1 mg/mL HLM or 0.02 mg/mL HIM, 1.3 mM NADP^+, 0.4 U/mL glucose-6-phosphate dehydrogenase and 0.2% organic solvent. This solution was incubated for 60 min at 37 °C. The reaction was quenched by addition of acetonitrile (500 µL). The mixture was centrifuged at 10,000 × g for 10 min. The supernatant was analyzed by LC-MS analysis.
After passing through the intestinal membrane into the portal circulation the prodrug quickly enters the liver. This metabolic condition was simulated in the present work by using pooled human liver microsomes (HLM).

[8] = Screening incubation in USP simulated intestinal fluid (SIF); details: incubation 37 °C, one hour, n = 2; <LOD = bupropion, its metabolites or other prodrugs not detected; LOD 0.1 ng/mL
Procedure: USP simulated intestinal fluid preparation. Monobasic potassium phosphate (0.068 g) was dissolved in 2.5 mL of water and mixed. Sodium hydroxide (0.77 mL of 0.2 M) and water (5.0 mL) were added. Pancreatin (0.1 g) was added and the pH adjusted with either 0.2 M sodium hydroxide or 0.2 M hydrochloric acid to a pH of 6.8 ± 0.1. The solution was diluted to 10 mL with water.
(§2) Pepsin is most efficient at cleaving peptide bonds between hydrophobic and aromatic amino acids such as phenylalanine, tryptophan and tyrosine. In order to simulate the pH and digestive enzymes of the stomach, USP simulated gastric fluid (SGF) was used. Conditions in the intestine were simulated using USP simulated intestinal fluid (SIF).
(§3) One hour metabolism or hydrolysis was considered to be sufficient time to generate detectable levels of metabolites, bearing in mind the likely exposure time in vivo. A blank media was used in each analysis to subtract a background from each LC-MS sample chromatogram. A t0 sample was also used to identify impurities related to each prodrug.
(§4) After one hour incubation of each compound in the selected media, the mixture was quenched with acetonitrile and the sample was centrifuged to remove precipitated proteins. The supernatant solution was analyzed immediately by LC-MS using data dependent acquisition analysis.
(§5) This transformation is commonly used to assess activity of oxidative enzyme CYP2B6 in human liver and intestinal microsomes. […] It was important to report if any of the other prodrugs were detected if for instance a possible multistep-prodrug was found.

[9] = Screening incubation in USP simulated gastric fluid (SGF); details: incubation 37 °C, one hour, n = 2; <LOD = bupropion, its metabolites or other prodrugs not detected; LOD 0.1 ng/mL
Procedure: USP simulated gastric fluid preparation. Sodium chloride (0.02 g) and purified pepsin (0.032 g) that is derived from porcine stomach mucosa with an activity of 800 to 2,500 units per mg of protein were dissolved in 0.07 mL of concentrated hydrochloric acid and sufficient water to make 10 mL.
as §2, §3, §4, §5

[10] = Microsomal metabolic stability screen, pooled human intestinal microsomes (HIM); assay type: in vitro ADME; details: 10 µM prodrug, 0.02 mg/mL HIM, NADPH regenerating system, 37 °C, 60 min, n = 2; LOD 0.1 ng/mL
Procedure: Human intestinal microsome (HIM) stock solution preparation. HIM (0.2 mL) stock was added to PBS solution (9.8 mL). Final concentration; 0.2 mg/mL.
as §1
The intestinal cells contain cytochome P450 enzymes, flavin monoxygenases, esterases and UDP glucuroyl transferases. Condition III involved the use of pooled human intestinal microsomes (HIM) in order to simulate the potential metabolism that occurs during absorption and passage through the intestinal wall.

[11] = In vitro metabolic screen in the five media (SGF, SIF, HIM, HLM, PHP), overall statement; assay type: in vitro ADME; details: 37 °C, one hour, statement in words
Text: A summary of the oral prodrug candidate matrix we developed is illustrated in Figure 2. It contained six main conditions and can be applied to the development of any drug candidate. The work plan starts out with a concept molecule which in this case was bupropion. At this stage prodrug candidates are identified and the literature is searched for transformations that have been reported and methods used to carry out these transformations. […] After synthesis and purification of each potential prodrug, full spectroscopic characterization was performed. Each prodrug was screened in the metabolic media to assess its stability. Potential prodrug candidates were then selected for further in vitro enzyme kinetic and hydrolysis studies to evaluate the most likely prodrug for further in vivo assessment.
The five media (SGF, SIF, HIM, HLM and PHP) best represent the transit a drug or prodrug would take if delivered by the oral route of administration.

[12] = Michaelis-Menten kinetics of bupropion formation in pooled human liver microsomes; assay type: in vitro ADME; parameters: intrinsic hepatic clearance (Cli, h): unit not given here
Procedure: Microsomes, NADPH regenerating solutions A and B were thawed rapidly to 37 °C, and then kept on ice until ready for use. Substrate solutions were prepared (1–500 µM) where the maximum concentration of DMSO was 1%, and the concentration of microsomes, NADPH regenerating solution B and phosphate buffer was fixed. After incubation for 5 min, NADPH regenerating solution A was added and the metabolism was initiated. Final volume was 100 μL. The tube was inverted twice and vortex mixed. The final concentrations of prodrug in this solution was 1–500 µM, HLM (0.1 mg/mL) or HIM (0.02 mg/mL), NADP^+ (1.3 mM), glucose-6-phosphate dehydrogenase (0.4 U/mL) and 1.0% DMSO. This solution was incubated for 20 min at 37 °C. The reaction was quenched by addition of 100 µL of acetonitrile. The mixture was centrifuged at 10,000 × g for 10 min. The supernatant was analyzed by LC-MS analysis.

T1 sequence (P23975 whole entry): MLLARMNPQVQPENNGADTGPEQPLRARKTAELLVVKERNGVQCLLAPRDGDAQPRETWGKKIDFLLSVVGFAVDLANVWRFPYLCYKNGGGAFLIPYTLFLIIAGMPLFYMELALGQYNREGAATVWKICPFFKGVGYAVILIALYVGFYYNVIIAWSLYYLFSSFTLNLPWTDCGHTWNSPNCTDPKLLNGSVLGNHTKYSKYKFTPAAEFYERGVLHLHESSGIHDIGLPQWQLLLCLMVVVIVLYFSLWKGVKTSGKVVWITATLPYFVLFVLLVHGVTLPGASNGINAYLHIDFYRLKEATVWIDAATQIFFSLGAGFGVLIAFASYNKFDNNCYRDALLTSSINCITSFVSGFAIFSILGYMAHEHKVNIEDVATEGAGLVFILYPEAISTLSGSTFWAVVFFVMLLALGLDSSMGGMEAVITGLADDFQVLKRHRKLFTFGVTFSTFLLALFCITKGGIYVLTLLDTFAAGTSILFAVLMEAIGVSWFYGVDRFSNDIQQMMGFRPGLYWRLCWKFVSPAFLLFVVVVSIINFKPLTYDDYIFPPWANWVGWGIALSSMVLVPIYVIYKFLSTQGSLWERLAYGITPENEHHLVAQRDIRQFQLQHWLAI

| Structure (SMILES) | Primary product detected in media PHP [6] | Primary product detected in media HLM [7] | Primary product detected in media SIF [8] | Primary product detected in media SGF [9] | Primary product detected in media HIM [10] | Product / activation to bupropion or its metabolites on screening in the metabolic media [11] | also measured |
| --- | --- | --- | --- | --- | --- | --- | --- |
| CC(NC(C)(C)C)C(=O)c1cccc(Cl)c1 (racemic) [Bupropion, Rac-bupropion hydrochloride, reference compound] | – | – | – | – | – | – | nH (Hill coefficient) [1]: 0.835; sample stability in plasma (pH) [2]: stable at low pH; aqueous degradation rate above pH 12 ([3]; above pH 12): rate of degradation increases significantly; aqueous stability / degradation rate below pH 5 ([3]; below pH 5): stable; aqueous stability profile above pH 5 [4]: poor stability profile; pIC50 (Nicotinic acetylcholine): < 4.00; pIC50 [5]: 4.06; pKi ([5]; Cheng and Prusoff): 4.57 |
| CO/C(=C(/C)N(Cc1ccccc1)C(C)(C)C)c1cccc(Cl)c1 [Compound 7, (E/Z)-O-methyl N-benzyl bupropion] | <LOD | O-demethylated to N-benzylbupropion (5) | <LOD | <LOD | O-demethylated to N-benzylbupropion (5) | – | – |
| CO/C(=C(/C)N(C)C(C)(C)C)c1cccc(Cl)c1 [Compound 6, E/Z-N,O-dimethylated bupropion] | <LOD | – | <LOD | <LOD | – | N-methylbupropion (4) | – |
| CC1C(c2cccc(Cl)c2)=NOCN1C(C)(C)C (racemic) [Compound 10, Rac-oxadiazine of bupropion] | <LOD | – | <LOD | <LOD | – | – | – |
| CC1C(c2cccc(Cl)c2)=NOC(=O)N1C(C)(C)C (racemic) [Compound 11, Rac-oxadiazinone of bupropion] | <LOD | <LOD | <LOD | <LOD | <LOD | resistant to all of the screening conditions | – |
| CC(C(=O)c1cccc(Cl)c1)N(Cc1ccccc1)C(C)(C)C (racemic) [Compound 5, Rac-N-benzyl bupropion] | <LOD | The major product was bupropion | <LOD | <LOD | The major product was bupropion | – | intrinsic hepatic clearance (Cli, h) ([12]; from HLM Michaelis-Menten parameters): 87; Vmax of bupropion formation ([12]; pooled HLM 0.1 mg/mL, substrate 1–500 µM, 20 min, 37 °C, n = 6): 1323 ± 42.2 pmol/min/mg HLM |
| CC(NC(C)(C)C)/C(=N/O)c1cccc(Cl)c1 (stereo not drawn) [Compound 9, syn- and anti-bupropion hydroxyimine] | <LOD | <LOD | <LOD | <LOD | <LOD | neither bupropion nor any of its metabolites were detected | stability / hydrolysis in simulated gastric fluid (SGF pH 1.2, 37 °C): none was detected; stability at physiological pH (phosphate buffered saline pH 7.4, 37 °C): much greater stability than bupropion |
| CC(=O)O/C(=C(/C)N(C(C)=O)C(C)(C)C)c1cccc(Cl)c1 [Compound 8, (E/Z)-N,O-diacetylated bupropion] | <LOD | <LOD | <LOD | <LOD | <LOD | did not result in any activation back to bupropion or its metabolites | – |
| Cc1c(-c2cccc(Cl)c2)oc(=O)n1C(C)(C)C [Compound 12, oxazolone of bupropion] | <LOD | <LOD | <LOD | <LOD | <LOD | no bupropion or metabolites thereof detected | – |
